Experimental findings from US8022091B2, “Triazole derivative” (Taisho Pharmaceutical Co., Ltd., priority 2006, dated 2011) are described below.

T1 sequence (P21453 whole entry): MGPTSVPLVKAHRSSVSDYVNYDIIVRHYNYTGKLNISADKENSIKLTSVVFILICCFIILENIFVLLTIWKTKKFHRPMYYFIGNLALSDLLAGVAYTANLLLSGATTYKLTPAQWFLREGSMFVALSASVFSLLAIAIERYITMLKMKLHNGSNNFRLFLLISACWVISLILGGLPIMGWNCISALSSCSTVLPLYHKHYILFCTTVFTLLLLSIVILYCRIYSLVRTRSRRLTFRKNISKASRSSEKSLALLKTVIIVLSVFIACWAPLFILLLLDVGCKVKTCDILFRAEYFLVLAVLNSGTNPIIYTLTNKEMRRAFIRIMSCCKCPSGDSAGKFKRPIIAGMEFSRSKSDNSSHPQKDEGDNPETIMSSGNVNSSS

The experiment has as its target T1, human Edg-1 (S1P1) (Homo sapiens, UniProt P21453).
T1 construct: expressed in transfected cells; host or cells: HEK-293
Briefly: S1P1 binding assay: inhibition of [33P]-S1P binding to membrane fraction of HEK-293 cells transferred with the human Edg-1 (S1P1) gene. Particulars: test compound 10 μM; inhibition of [33P]-S1P binding, membrane fraction. In outline: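 Membranes from S1P1-transfected HEK-293 cells incubated 1 h at 30° C in pH 7.4 Tris buffer with fatty acid-free BSA, 0.1 nM [33P]-S1P and test compound (0.1% DMSO). Filter-bound radioactivity was counted; inhibition corrected for binding to untransfected-cell membranes, and IC50 derived from concentration series.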
For orientation: inhibition means the change of the read-out against control, counted positive when it falls. For the compound `CCn1c(Oc2ccc3cc[nH]c3c2)nnc1[C@@H](C)NS(=O)(=O)c1cc(C)oc1C(F)(F)F` [Compound 460], the inhibition at 10 µM came out at 53.2%.
For `CCn1c(Oc2ccc3cc[nH]c3c2)nnc1[C@@H](C)NS(=O)(=O)c1ccc2c(c1)OCCO2` [Compound 461], the inhibition at 10 µM is 99.7%.
In the case of `CCn1c(Oc2ccc3cc[nH]c3c2)nnc1[C@@H](C)NS(=O)(=O)c1ccc2nsnc2c1` [Compound 464], the inhibition at 10 µM was 87.9%.
Take `CCn1c(Oc2ccc3cc[nH]c3c2)nnc1[C@@H](C)NS(=O)(=O)c1ccsc1` [Compound 466]: the inhibition at 10 µM turned out to be 51.1%.
In the case of `CCn1c(Oc2ccc3cc[nH]c3c2)nnc1[C@@H](C)NS(=O)(=O)c1ccc(-c2cnco2)s1` [Compound 467], the inhibition at 10 µM was determined as 59.9%.
`CCn1c(Oc2ccc3cc[nH]c3c2)nnc1[C@@H](C)NS(=O)(=O)c1cnn(-c2ccccc2)c1C` [Compound 468]: the inhibition at 10 µM came out at 56.2%.
Take `CCn1c(Oc2ccc3cc[nH]c3c2)nnc1[C@@H](C)NS(=O)(=O)c1cc(C)sc1C` [Compound 472]: the inhibition at 10 µM is 55.3%.
On to `CCn1c(Oc2ccc3cc[nH]c3c2)nnc1[C@@H](C)NS(=O)(=O)c1ccc(OC)cc1OC` [Compound 473], for which the inhibition at 10 µM came to 74.5%.
In the case of `CCn1c(Oc2ccc3cc[nH]c3c2)nnc1[C@@H](C)NS(=O)(=O)c1ccc(C(F)(F)F)cc1Cl` [Compound 475], the inhibition at 10 µM amounted to 51.8%.
Consider `CCn1c(Oc2ccc3cc[nH]c3c2)nnc1[C@@H](C)NS(=O)(=O)c1cccc(C(C)=O)c1` [Compound 477], for which the inhibition at 10 µM turned out to be 58.1%.
`CCn1c(Oc2ccc3cc[nH]c3c2)nnc1[C@@H](C)CS(=O)(=O)c1ccc(F)c2ccccc12` [Compound 478]: the inhibition at 10 µM came out at 87%.
In the case of `CCc1ccc(OC)c(S(=O)(=O)N[C@H](C)c2nnc(Oc3ccc4cc[nH]c4c3)n2CC)c1` [Compound 482], the inhibition at 10 µM amounted to 87.4%.
On to `CCn1c(Oc2ccc3cc[nH]c3c2)nnc1[C@@H](C)NS(=O)(=O)c1ccc(Cl)c(S(N)(=O)=O)c1` [Compound 484], for which the inhibition at 10 µM turned out to be 65.3%.
For the compound `CCn1c(Oc2ccc3cc[nH]c3c2)nnc1[C@@H](C)NS(=O)(=O)c1ccc(Br)c(C(F)(F)F)c1` [Compound 488], the inhibition at 10 µM is 62.5%.
To `CCn1c(Oc2ccc3cc[nH]c3c2)nnc1[C@@H](C)NS(=O)(=O)c1cc2ccccc2s1` [Compound 493] belongs 83.1%; to `CCn1c(Oc2ccc3cc[nH]c3c2)nnc1[C@@H](C)NS(=O)(=O)c1csc2ccccc12` [Compound 494], 66%; to `CCn1c(Oc2cccc(N3CCN(C)CC3)c2)nnc1[C@@H](C)NS(=O)(=O)c1ccc(C(C)=O)cc1` [Compound 497], 104%.
Take `CCn1c(Oc2cccc(N3CCN(C)CC3)c2)nnc1[C@@H](C)NS(=O)(=O)c1ccccc1` [Compound 498]: the inhibition at 10 µM is 84%.
As for `CCn1c(Oc2cccc(N3CCN(C)CC3)c2)nnc1[C@@H](C)NS(=O)(=O)c1ccc(Br)cc1` [Compound 499], the inhibition at 10 µM amounted to 109%.
`CCn1c(Oc2cccc(N3CCN(C)CC3)c2)nnc1[C@@H](C)NS(=O)(=O)c1ccc(C(C)(C)C)cc1` [Compound 500]: the inhibition at 10 µM stood at 90.2%.
To `CCn1c(Oc2cccc(N3CCN(C)CC3)c2)nnc1[C@@H](C)NS(=O)(=O)c1ccccc1Br` [Compound 501] belongs 61.7%.
The figure for `CCCCOc1ccc(S(=O)(=O)N[C@H](C)c2nnc(Oc3cccc(N4CCN(C)CC4)c3)n2CC)cc1` [Compound 502] is 75.5%.
Turning to `CCn1c(Oc2cccc(N3CCN(C)CC3)c2)nnc1[C@@H](C)NS(=O)(=O)c1cccc(Br)c1` [Compound 503], the inhibition at 10 µM stood at 116%.
For the compound `CCn1c(Oc2cccc(N3CCN(C)CC3)c2)nnc1[C@@H](C)NS(=O)(=O)c1ccc(Br)cc1OC(F)(F)F` [Compound 504], the inhibition at 10 µM turned out to be 53.5%.
Regarding `CCn1c(Oc2cccc(N3CCN(C)CC3)c2)nnc1[C@@H](C)NS(=O)(=O)c1ccc(Cl)cc1` [Compound 505], the inhibition at 10 µM came out at 108%.
Consider `CCn1c(Oc2cccc(N3CCN(C)CC3)c2)nnc1[C@@H](C)NS(=O)(=O)c1ccccc1C#N` [Compound 506], for which the inhibition at 10 µM was 83.2%.
As for `CCn1c(Oc2cccc(N3CCN(C)CC3)c2)nnc1[C@@H](C)NS(=O)(=O)c1ccc(Cl)c2nonc12` [Compound 507], the inhibition at 10 µM is 84.8%.
As for `CCn1c(Oc2cccc(N3CCN(C)CC3)c2)nnc1[C@@H](C)NS(=O)(=O)c1sc2ccc(Cl)cc2c1C` [Compound 509], the inhibition at 10 µM is 87%.
`CCn1c(Oc2cccc(N3CCN(C)CC3)c2)nnc1[C@@H](C)NS(=O)(=O)c1cc(C)c(Cl)cc1C` [Compound 510]: the inhibition at 10 µM worked out at 114%.
Take `CCn1c(Oc2cccc(N3CCN(C)CC3)c2)nnc1[C@@H](C)NS(=O)(=O)c1cc(Cl)ccc1Cl` [Compound 511]: the inhibition at 10 µM is 98.6%.
Take `CCn1c(Oc2cccc(N3CCN(C)CC3)c2)nnc1[C@@H](C)NS(=O)(=O)c1c(Cl)cccc1Cl` [Compound 512]: the inhibition at 10 µM worked out at 60.7%.
With `CCn1c(Oc2cccc(N3CCN(C)CC3)c2)nnc1[C@@H](C)NS(=O)(=O)c1ccc(OC)c(OC)c1` [Compound 513], the inhibition at 10 µM is 96.6%.
For `CCc1ccc(S(=O)(=O)N[C@H](C)c2nnc(Oc3cccc(N4CCN(C)CC4)c3)n2CC)cc1` [Compound 515], the inhibition at 10 µM came out at 109%.
To `CCn1c(Oc2cccc(N3CCN(C)CC3)c2)nnc1[C@@H](C)NS(=O)(=O)c1ccc(F)cc1` [Compound 516] belongs 107%.
For the compound `CCn1c(Oc2cccc(N3CCN(C)CC3)c2)nnc1[C@@H](C)NS(=O)(=O)c1c(C)cc(C)cc1C` [Compound 517], the inhibition at 10 µM was found to be 69.6%.
For `CCn1c(Oc2cccc(N3CCN(C)CC3)c2)nnc1[C@@H](C)NS(=O)(=O)c1ccc(OC)cc1` [Compound 518], the inhibition at 10 µM was 111%.
For the compound `CCn1c(Oc2cccc(N3CCN(C)CC3)c2)nnc1[C@@H](C)NS(=O)(=O)c1ccc(S(C)(=O)=O)cc1` [Compound 520], the inhibition at 10 µM was found to be 69.9%.
In the case of `CCn1c(Oc2cccc(N3CCN(C)CC3)c2)nnc1[C@@H](C)NS(=O)(=O)c1cccc2ccccc12` [Compound 522], the inhibition at 10 µM came to 98.4%.
Consider `CCn1c(Oc2cccc(N3CCN(C)CC3)c2)nnc1[C@@H](C)NS(=O)(=O)CCc1cccc2ccccc12` [Compound 523], for which the inhibition at 10 µM turned out to be 114%.
In the case of `CCn1c(Oc2cccc(N3CCN(C)CC3)c2)nnc1[C@@H](C)NS(=O)(=O)c1c(F)c(F)c(F)c(F)c1F` [Compound 524], the inhibition at 10 µM turned out to be 83%.
Take `CCn1c(Oc2cccc(N3CCN(C)CC3)c2)nnc1[C@@H](C)NS(=O)(=O)c1ccc(I)cc1` [Compound 525]: the inhibition at 10 µM came out at 111%.
To `CCn1c(Oc2cccc(N3CCN(C)CC3)c2)nnc1[C@@H](C)NS(=O)(=O)c1cc(Cl)c(Cl)cc1Cl` [Compound 526] belongs 112%; to `CCn1c(Oc2cccc(N3CCN(C)CC3)c2)nnc1[C@@H](C)NS(=O)(=O)c1c(C(C)C)cc(C(C)C)cc1C(C)C` [Compound 527], 52.1%.
Turning to `CCn1c(Oc2cccc(N3CCN(C)CC3)c2)nnc1[C@@H](C)NS(=O)(=O)c1ccc(C)cc1` [Compound 528], the inhibition at 10 µM is 106%.
As to `CCn1c(Oc2cccc(N3CCN(C)CC3)c2)nnc1[C@@H](C)NS(=O)(=O)c1cccc(C(F)(F)F)c1` [Compound 530], the inhibition at 10 µM amounted to 115%.
`CCn1c(Oc2cccc(N3CCN(C)CC3)c2)nnc1[C@@H](C)NS(=O)(=O)c1ccccc1C` [Compound 531]: the inhibition at 10 µM was 100%.
Regarding `CCn1c(Oc2cccc(N3CCN(C)CC3)c2)nnc1[C@@H](C)NS(=O)(=O)c1ccc(OC(F)(F)F)cc1` [Compound 532], the inhibition at 10 µM was 99.2%.
To `CCn1c(Oc2cccc(N3CCN(C)CC3)c2)nnc1[C@@H](C)NS(=O)(=O)c1cccc(C)c1` [Compound 534] belongs 101%; to `CCn1c(Oc2cccc(N3CCN(C)CC3)c2)nnc1[C@@H](C)NS(=O)(=O)c1ccc2c(c1)CN(C(=O)C(F)(F)F)CC2` [Compound 536], 50.3%.
As to `CCn1c(Oc2cccc(N3CCN(C)CC3)c2)nnc1[C@@H](C)NS(=O)(=O)c1cc(C)ccc1C` [Compound 537], the inhibition at 10 µM came to 96.7%.
The figure for `CCn1c(Oc2cccc(N3CCN(C)CC3)c2)nnc1[C@@H](C)NS(=O)(=O)c1ccc(-c2csnn2)s1` [Compound 538] is 97.1%.
Consider `CCn1c(Oc2cccc(N3CCN(C)CC3)c2)nnc1[C@@H](C)NS(=O)(=O)c1c(C)nn(C)c1Cl` [Compound 540], for which the inhibition at 10 µM was 64.3%.
Turning to `CCn1c(Oc2cccc(N3CCN(C)CC3)c2)nnc1[C@@H](C)NS(=O)(=O)c1c(C)noc1C` [Compound 541], the inhibition at 10 µM is 65.5%.
As to `CCn1c(Oc2cccc(N3CCN(C)CC3)c2)nnc1[C@@H](C)NS(=O)(=O)c1c(Cl)ccc2nonc12` [Compound 542], the inhibition at 10 µM amounted to 50.1%.
With `CCn1c(Oc2cccc(N3CCN(C)CC3)c2)nnc1[C@@H](C)NS(=O)(=O)c1ccc(C(=O)OC)n1C` [Compound 543], the inhibition at 10 µM was found to be 112%.
For the compound `CCn1c(Oc2cccc(N3CCN(C)CC3)c2)nnc1[C@@H](C)NS(=O)(=O)c1c(C)nn(C)c1C` [Compound 544], the inhibition at 10 µM was 53.9%.
As for `CCn1c(Oc2cccc(N3CCN(C)CC3)c2)nnc1[C@@H](C)NS(=O)(=O)c1ccccc1C(=O)OC` [Compound 545], the inhibition at 10 µM came out at 50.7%.
Take `CCn1c(Oc2cccc(N3CCN(C)CC3)c2)nnc1[C@@H](C)NS(=O)(=O)c1ccccc1C(F)(F)F` [Compound 546]: the inhibition at 10 µM worked out at 55.8%.
For `CCCc1ccc(S(=O)(=O)N[C@H](C)c2nnc(Oc3cccc(N4CCN(C)CC4)c3)n2CC)cc1` [Compound 548], the inhibition at 10 µM came to 96.7%.
For the compound `CCn1c(Oc2cccc(N3CCN(C)CC3)c2)nnc1[C@@H](C)NS(=O)(=O)c1c(C)c(C)cc(C)c1C` [Compound 549], the inhibition at 10 µM stood at 89.2%.
